For five molecules, IC50, inhibition and Km results are on record in PMC7827481, “Development of A Continuous Fluorescence-Based Assay for N-Terminal Acetyltransferase D” (International Journal of Molecular Sciences, 2021).

By IC50 is commonly meant the point on the concentration scale where inhibition reaches its midpoint. A low value points to greater potency. Broadly, the inhibition is the percentage by which the read-out fell short of the control. Lower therefore signals a weak effect. For orientation: Km means the substrate concentration at which the rate is half of its maximum.

In series [1] the target is T1, N-terminal acetyltransferase D (NatD) (Homo sapiens, UniProt Q86UY6).
T1 construct: gene NAA40; full-length human NatD, untagged
The series can be described thus: ThioGlo4 fluorescence acetyltransferase assay. Format: biochemical.

The target in series [2] is T1, N-terminal acetyltransferase D (NatD). The series can be described thus: ThioGlo4 fluorescence acetyltransferase assay; confirmed by MALDI-MS (IC50 […]). It counts as biochemical.
Series [3] shares this target. The series is described as follows: MALDI-MS acetylation inhibition at […] (also […], […] in fluorescence assay). It counts as biochemical.
The target is the same in series [4]. The series can be described thus: ThioGlo4 fluorescence acetyltransferase assay; confirmed by MALDI-MS ([…] at […]). It counts as biochemical.
Series [5] concerns CC(=O)SCCNC(=O)CCNC(=O)[C@H](O)C(C)(C)COP(=O)(O)OP(=O)(O)OC[C@H]1O[C@@H](n2cnc3c(N)ncnc32)[C@H](O)[C@@H]1OP(=O)(O)O. The series can be described thus: purified protein. The following applies: AcCoA binding site.

Take `C[C@H](NC(=O)/C(C#N)=C/c1ccc(O)c(O)c1)c1ccccc1` [AG 835]: half-maximal inhibition in series [1] (IC50) required 38 ± 2 µM.

Molecule `O=C(O)C1=CC(=C(c2ccc(O)c(C(=O)O)c2)c2ccc(O)c(C(=O)O)c2)C=CC1=O` [P1401K09, aurintricarboxylic acid] returned a 50% inhibitory concentration (IC50) in series [2] of 1.5 ± 0.1 µM.

Turning to `Nc1c(S(=O)(=O)O)cc(Nc2ccc(Nc3nc(Cl)nc(Nc4cccc(S(=O)(=O)O)c4)n3)c(S(=O)(=O)O)c2)c2c1C(=O)c1ccccc1C2=O` [P1404C10, Reactive blue 2], testing at 10 µM in series [3] gave an inhibition of 100%.

`C[C@@H](NC(=O)/C(C#N)=C/c1ccc(O)c(O)c1)c1ccccc1` [P1404L15, tyrphostin B44(-)] came in with a 50% inhibitory concentration (IC50) in series [4] of 63 ± 4 µM.

For “N-terminal acetyltransferase D (NatD) (Homo sapiens)”, the Km in series [5] came to 0.5 ± 0.06 µM.
